Reference: ChEMBL document CHEMBL1142525, “Molecular probes for imaging myelinated white matter in CNS” (J Med Chem, 2008)
Active and inactive are the calls of the source. The rule behind the calls is not given here.

Key:
[1] = species on record: Rattus norvegicus; assay: Binding affinity to Sprague-Dawley rat brain myelin fractions at 12.5 uM after 1 hr by UV spectrophotometry
[2] = Displacement of [3H]BMB from Sprague-Dawley rat brain myelin fractions; assay type: tissue-based
[3] = Partition coefficient, log P in 1-octanol/phosphate buffer at pH 7.40; assay type: physicochemical; conditions: pH 7.4
[4] = test system: Brain; assay: Drug uptake in Swiss Webster mouse brain at 0.185 MBq, iv after 120 mins; assay type: ADME, organism-based; conditions: in vivo, 2 h
[5] = test system: Brain; assay: Drug uptake in Swiss Webster mouse brain at 0.185 MBq, iv after 60 mins; assay type: ADME, organism-based; conditions: in vivo, 1 h
[6] = test system: Brain; assay: Drug uptake in Swiss Webster mouse brain at 0.185 MBq, iv after 30 mins; assay type: ADME, organism-based; conditions: in vivo, 0.5 h

Row | SMILES | Activity [1] | Ki [2] | further results
1 | Nc1ccc(/C=C/c2ccc(I)cc2)cc1 |  | 494 nM | 
2 | Nc1ccc(/C=C/c2ccc([125I])cc2)cc1 |  |  | logD [3]: 2.5; Drug uptake [4]: 1.12 % ID/g; Drug uptake [5]: 2.05 % ID/g; Drug uptake [6]: 2.65 % ID/g
3 | Nc1ccc(/C=C/c2ccc(N)cc2)cc1 |  | 370 nM | 

Further lines, with some results ahead:

Row | Activity [1] | Ki [2] | SMILES | further results
4 | Active | 119 nM | CN(C)c1ccc(/C=C/c2ccc(N)cc2)cc1 | 
5 | Active | 126 nM | CNc1ccc(/C=C/c2ccc(N)cc2)cc1 | 
